Test results reported in patent US20100203507A1 (PROMETHEUS LABORATORIES, INC, priority 2005, published 2010).
Several values for one entry are separate records, joined by “and”; a condition that tells them apart may be missing. Equal entries are not always repeated.

Columns and labels:
[1] = system: patients with rheumatoid arthritis; assay: Cross-sectional study: occurrence of side-effects under low dose MTX therapy (Example 1); type: in vivo, human
Experimental: (§1) Study design: The study was cross-sectional at two investigational California sites (Cedars Sinai, Department of Rheumatology; and UCLA, Department of Rheumatology). […] Concomitant disease-modifying arthritis agents (e.g., sulphasalazine, hydroxychloroquine, leflunomide), low-dose corticosteroids (<10 mg day), and folic acid supplementation were allowed. […] Patient demographics were collected at the time of enrollment in the study. At a single study visit, EDTA blood was drawn and shipped overnight to Prometheus Laboratories in San Diego, Calif.
(§2) Clinical status assessment: Patient clinical and demographic characteristics were collected at the single study visit. Clinical efficacy was assessed using the disease activity score (DAS28), which includes the number of tender and swollen joint counts (n=28), the erythrocyte sedimentation rate, and the patient's global assessment of disease activity.
Statistical analysis: The analysis consisted of multivariate logistic regression with the occurrence of side-effects as the dependent variable.

[2] = system: patients with rheumatoid arthritis; assay: Cross-sectional study: clinical efficacy by disease activity score DAS28 (Example 1); type: in vivo, human
Experimental: as §1, §2

[3] = system: RBC folate polyglutamates; assay: RBC folate polyglutamate levels by radio-assay (Example 2); type: in vivo, human; conditions: for RBC folate PG decrease versus baseline / RBC folate PG levels: fourth visit
Experimental: Laboratory measurements: Red blood cell (RBC) long-chain MTXPG concentrations (MTXPG3; nmol/L RBC) were measured using a post-column photo-oxidation HPLC-fluorometry technique as described in, e.g., Dervieux et al., Clin. Chem., 49:1632-1641 (2003). RBC folate polyglutamates (Folate PGs; expressed as nmol/L RBCs) were measured using a radio-assay (Biorad; Hercules, Calif.). The MTHFR C677T polymorphism can be measured with a real-time TaqMan allelic discrimination assay as described above. The MS A2756G polymorphism, which results in an aspartic acid to glycine substitution at codon 919 of MS, can be measured with a real-time TaqMan allelic discrimination assay using the following primers and fluorogenic 3′-minor groove binding probes: forward primer: 5′-GAATACTTTGAGGAAATCATGGAAGA-3′ (SEQ ID NO:17); reverse primer: 5′-TCTGTTTCTACCACTTACCTTGAGAGACT-3′ (SEQ ID NO:18); wild-type fluorescent probe: 5′-FAM-AGA CAG GAC CAT TAT G-MGB-3′ (SEQ ID NO:19); and mutant fluorescent probe: 5′-VIC-ACA GGG CCA TTA TG-MGB-3′ (SEQ ID NO:20).

[4] = system: adult rheumatoid arthritis patients naive to MTX; assay: Prospective longitudinal MTX dose escalation study: occurrence of side-effects (Example 2)
Experimental: The clinical assessment at each study visit consisted of a tender and swollen joint count, a patient's assessment of disease activity (10 cm-VAS), a physician's assessment of disease activity (10 cm-VAS), and a C-Reactive protein (CRP) determination.
The occurrence of side-effects was recorded at the time of each study visit. […] Leukocyte count, hemoglobin, and liver AST were measured on the day of the study visit using standard laboratory methods. […] All data were captured on Case Report Forms using a standardized questionnaire. This consisted of the presence of nausea, dyspepsia, diarrhea, headache, lethargy, stomatitis, alopecia, and pulmonary toxicity (e.g., cough, dyspnea, pulmonary infiltrates). Patients were evaluated by the same physician at the time of each study visit. Toxicities were graded as “mild,” “moderate,” and “severe.” EDTA whole blood was drawn from each patient and shipped overnight from Albany, N.Y. to Prometheus Laboratories in San Diego, Calif.
Toxicities were analyzed using the percentage of 4-6 week periods with side-effects per patient. […] Statistical analyses were performed using the software package SAS (Release 8.2; SAS Institute Inc.; Cary, N.C.).

[5] = system: adult rheumatoid arthritis patients naive to MTX; assay: Prospective longitudinal MTX dose escalation study: response (DAS28, EULAR criteria, physician's assessment VAS) (Example 2)
[6] = 97 patients, single study visit
[7] = MS 2756A/A vs. MS2756 A/G or G/G
[8] = MTHFR 1298A/C or C/C vs. MTHFR 1298A/A
[9] = MTRR 66G/G vs. MTRR 66A/A or A/G
[10] = visit 4, generalized linear model
[11] = visit 6, generalized linear model

## CN(Cc1cnc2nc(N)nc(N)c2n1)c1ccc(C(=O)N[C@@H](CCC(=O)O)C(=O)O)cc1 [MTX, methotrexate]
[1]; 97 patients
  Patients with high disease activity and side-effects, number: 18
[1]; 97 patients on MTX at least one month, single study visit
  Overall side-effects, number of patients: 40
[1]; [6]
  AST >40 U/L, % of patients: (6.1%)
  AST >40 U/L, number of patients: 6
  Alopecia, % of patients: (17.5%)
  Alopecia, number of patients: 17
  Central nervous system side-effects, % of patients: (11.3%)
  Central nervous system side-effects, number of patients: 11
  Diarrhea, % of patients: (6.2%)
  Diarrhea, number of patients: 6
  Dyspepsia, % of patients: (7.2%)
  Dyspepsia, number of patients: 7
  Elevation of AST twice the upper normal value, pulmonary toxicity, or hematopoietic toxicity: None of the patients
  Gastrointestinal tract side-effects, % of patients: (24.7%)
  Gastrointestinal tract side-effects, number of patients: 24
  Headache, % of patients: (5.1%)
  Headache, number of patients: 8
  Lethargy, % of patients: (8.2%)
  Lethargy, number of patients: 8
  Nausea, % of patients: (9.2%)
  Nausea, number of patients: 9
  Severity of side-effects: mild and did not require MTX withdrawal
  Stomatatis, % of patients: (3.1%)
  Stomatatis, number of patients: 3
[1]; of patients with high disease activity, at the time of the visit
  Patients with high disease activity also experiencing a side-effect: 39%
[1]; patients with MTHFR 677C/T or 677C/C genotype
  Occurrence of central nervous system side-effects: 9.0%
[1]; patients with MTHFR 677T/T genotype
  Occurrence of central nervous system side-effects: 62.5%
[1]; toxicogenetic index of 0
  Patients presenting with a side-effect: 17%
[2]; 97 patients on MTX
  Patients presenting with a high disease activity: 47%
[2]; 97 patients, median 30 months under methotrexate
  Disease activity score (DAS28), median: 5.04
[3]; baseline to visit 4
  Estimate, percentage change in DAS28 vs percentage change in folate PG levels: 0.32±0.10
  Estimate, percentage change in physician's assessment VAS vs percentage change in folate PG levels: 0.71±0.22
[3]; baseline to visit 6
  Estimate, MTX dose vs decrease in RBC folate PGs: 0.0324±0.014
  Estimate, MTXPG levels vs decrease in RBC folate PGs: −0.009±0.003
[3]; dose 7.5 to 15 mg/week with MTXPG increase of 40 nmol/L RBCs at visit 6, from model equation
  Decrease in folate levels: 11.7%
[3]; fourth study visit, n=43 (initial 1222)
  Median RBC folate PG levels: 1065 nmol/L RBCs
[3]; efficacy index above 1
  RBC folate PG decrease versus baseline: 14%
  RBC folate PG levels: 1257 ± 70 nmol/L
[3]; efficacy index of 0
  RBC folate PG decrease versus baseline: 36%
  RBC folate PG levels: 886 ± 59 nmol/L
[3]; efficacy index of 1
  RBC folate PG decrease versus baseline: 42%
  RBC folate PG levels: 1168 ± 70 nmol/L
[3]; sixth visit
  Median RBC folate PG levels: 994 nmol/L RBCs
[3]; visit 4
  Likelihood of response to MTX, decrease in RBC folate PGs vs no change or increase: 8 fold and 7.7 fold
[4]; 2 severe lethargy, 2 severe dyspepsia
  Patients who experienced a severe side-effect in one of the study visits, number: 4
[4]; 48 patients
  Signs of hematological toxicity: None of the patients
[4]; 48 patients, 4 to 6 visits
  AST >40 U/L: median of percentage of study visits with side-effect per patient: 0%
  All side-effects: median of percentage of study visits with side-effect per patient: 50%
  Alopecia: median of percentage of study visits with side-effect per patient: 0%
  Alopecia: number of patients (% total) with at least one study visit with side-effect: 4 (8%)
  Central nervous system: median of percentage of study visits with side-effect per patient: 25%
  Central nervous system: number of patients (% total) with at least one study visit with side-effect: 30 (63%)
  Cough: median of percentage of study visits with side-effect per patient: 0%
  Cough: number of patients (% total) with at least one study visit with side-effect: 12 (25%)
  Dyspnea: median of percentage of study visits with side-effect per patient: 0%
  Dyspnea: number of patients (% total) with at least one study visit with side-effect: 1 (2.1%)
  Gastrointestinal tract: median of percentage of study visits with side-effect per patient: 25%
  Gastrointestinal tract: number of patients (% total) with at least one study visit with side-effect: 33 (69%)
  Headache: median of percentage of study visits with side-effect per patient: 0%
  Headache: number of patients (% total) with at least one study visit with side-effect: 14 (29%)
  Lethargy: median of percentage of study visits with side-effect per patient: 17%
  Lethargy: number of patients (% total) with at least one study visit with side-effect: 27 (56%)
  diarrhea: median of percentage of study visits with side-effect per patient: 0%
  diarrhea: number of patients (% total) with at least one study visit with side-effect: 15 (31%)
  dyspepsia: median of percentage of study visits with side-effect per patient: 0%
  dyspepsia: number of patients (% total) with at least one study visit with side-effect: 16 (33%)
  nausea: median of percentage of study visits with side-effect per patient: 0%
  nausea: number of patients (% total) with at least one study visit with side-effect: 22 (46%)
  stomatitis: median of percentage of study visits with side-effect per patient: 0%
  stomatitis: number of patients (% total) with at least one study visit with side-effect: 5 (10%)
[4]; [7]
  Estimate, percentage of 4 week periods with all side-effects: 0.20 ± 0.09
  Estimate, percentage of 4 week periods with central nervous system side-effects: 0.11 ± 0.09
  Estimate, percentage of 4 week periods with gastrointestinal side-effects: 0.29 ± 0.08
[4]; [8]
  Estimate, percentage of 4 week periods with all side-effects: 0.18 ± 0.10
  Estimate, percentage of 4 week periods with central nervous system side-effects: 0.21 ± 0.10
  Estimate, percentage of 4 week periods with gastrointestinal side-effects: 0.25 ± 0.09
[4]; [9]
  Estimate, percentage of 4 week periods with all side-effects: 0.22 ± 0.10
  Estimate, percentage of 4 week periods with central nervous system side-effects: 0.16 ± 0.09
  Estimate, percentage of 4 week periods with gastrointestinal side-effects: 0.28 ± 0.09
[4]; baseline to visit 4
  Increase in MCV above 120 fl: none of the patients
[4]; both at the fourth visit
  Patients requiring MTX dosage interruption, number: Two
[4]; generalized linear model
  Estimate, MTX dose administered vs occurrence of central nervous system side-effects: 0.186
[4]; visit 4
  Median increase in MCV from baseline: 3.5%
[4]; visit 4 (baseline 89 fl)
  Erythrocyte mean corpuscular volume (MCV), median: 93 fL
[4]; visit 6
  MCV of the only one patient above 120 fl: 124 fL
  Median increase in MCV: 3.7%
[5]; MTHFR 677T/T genotype
  Estimate, lower decrease in physician's assessment in disease activity: 0.367
[5]; MTHFR 677T/T genotype, visit 4
  OR, lower likelihood of response to therapy: 9.9
[5]; RBC MTXPG3
  OR, therapeutic response at about 6 months when MTXPG3 greater than about 20 nmol/L RBCs at about 3 months: 8.0
[5]; TS *2/*2 genotype
  Estimate, lower decrease in physician's assessment in disease activity: 0.360
[5]; TS *2/*2 genotype, visit 4
  OR, lower likelihood of response to therapy: 3.9
[5]; dose escalation 7.5 to 15 mg/week with MTXPG increase of 40 nmol/L RBCs at visit 4, from model equation
  Decrease in physician's assessment of disease activity compared to baseline: 19.8%
[5]; visit 4
  Patients responding to therapy: 77%
  Patients responding to therapy, number: 36
  Patients with good response, number: 15
  Patients with moderate response, number: 11
  Patients with poor response (EULAR): 23%
[5]; visit 4 (baseline 5.1)
  DAS28, median: 3.5
[5]; visit 4 (baseline 5.6)
  Physician's assessment of disease activity 10 cm VAS, median: 2.6
[5]; [10]
  Estimate, RBC MTXPG level vs percentage change from baseline in physician's assessment VAS: −0.013±0.004
  Estimate, weekly MTX dose vs percentage change from baseline in physician's assessment VAS: 0.043±0.017
[5]; visit 4, generalized linear model, FIG. 3A
  Estimate, RBC MTXPG formation in responders vs non-responders: 0.034±0.020
[5]; visit 4, median dose 15 mg/week
  Patients with poor response (EULAR), number: 11
[5]; visit 4, n=47
  Median decrease (from baseline) in DAS28: 36%
[5]; visit 4, n=48
  Median decrease (from baseline) in physician's assessment of disease activity VAS: 47%
[5]; visit 6
  Estimate, MTX dose vs percentage change from baseline in DAS28: 0.011±0.051
  Estimate, formation of RBC MTXPGs vs percentage change from baseline in DAS28: −0.003±0.001
  Non-responders: 9%
  Responders with moderate response, number: 10
  Responders, number of patients: 31
[5]; visit 6 (baseline 5.1)
  DAS28, median: 3.1
[5]; visit 6 (baseline 5.6)
  Physician's assessment of disease activity 10 cm VAS, median: 2.1
[5]; [11]
  Estimate, RBC MTXPG levels vs percentage change from baseline in physician's assessment of disease activity: −0.0077±0.025
  Estimate, weekly MTX dose vs percentage change from baseline in physician's assessment of disease activity: 0.029±0.012
[5]; visit 6, median dose 17.5 mg weekly
  Non-responders, number of patients: three
[5]; visit 6, n=34
  Median decrease (from baseline) in DAS28: 41%
[5]; visit 6, n=35
  Median decrease (from baseline) in physician's assessment of disease activity VAS: 52%
[5]; visit 6, of the responders
  Responders with moderate response: 32%
